Results as given in US20220362405A1, “COMPOSITIONS AND METHODS FOR TREATING LIVER DISEASE” (UNIVERSITY OF PITTSBURGH-OF THE COMMONWEALTH SYSTEM OF …, priority 2019, published 2022).

Test system: AKT
Assay: AKT inhibition in normal human hepatocytes (western blot)
Type: cell-based
Details: 5 μM MK-2206, 24 hours, freshly isolated normal human hepatocytes, preliminary experiments
From the text: Protein extraction and Western blotting. To perform the protein expression analysis, the isolated hepatocytes were divided in two fractions; one fraction was used for total protein extraction, according to standard procedures previously described (Bell A W et al., 2006) and the other fraction was used for nuclear protein isolation. For nuclear protein isolation, between 1×10^7 and 5×10^7 isolated hepatocytes per patient were washed and harvested in 40 mmol/L Tris (pH 7.6), 14 mmol/L NaCl, and 1 mmol/L EDTA, then centrifuged (5 min, 100g). Cell pellets were suspended in 2 mL of hypotonic buffer [10 mmol/L HEPES (pH 7.9), 10 mmol/L NaH2PO4, 1.5 mmol/L MgCl2, 1 mmol/L DTT, 0.5 mmol/L spermidine, and […] with protease and phosphatase inhibitor cocktails (Sigma, St. Louis, Mo.)]. Following 10 minutes of incubation on ice, samples were homogenized in a Dounce homogenizer and then centrifuged (5 min, 800 g). Cell lysis was monitored with trypan blue stain. Supernatants were saved as cytoplasmic extracts. The nuclei pellets were washed two additional times in the same buffer.
Nuclear proteins were extracted in 50-100 μL of hypertonic buffer [30 mmol/L HEPES (pH 7.9), 25% glycerol, 450 mmol/L NaCl, 12 mmol/L MgCl2, 1 mmol/L DTT, and 0.1 mmol/L EDTA with protease and phosphatase inhibitor cocktails (Sigma, St. Louis, Mo.)] for 45 minutes at 4° C. with continuous agitation. Extracts were centrifuged at 30,000 g, and the supernatants were collected and dialyzed for 2 hours against the same solution but containing 150 mmol/L NaCl. Protein concentration was determined by the Bicinchoninic Acid assay (Sigma, St. Louis, Mo.).
Western blot analysis performed according to standard procedures (Natarajan A et al., 2007). The intensity of each protein band was quantitated using National Institutes of Health Image J software. The primary antibodies and its dilutions are listed in the above shown Table 2.
AKT Inhibition in Normal Human Hepatocytes. Normal human hepatocytes (1 million cells/well) were cultured on collagen-coated wells. […]

In the case of `NC1(c2ccc(-c3nc4ccn5c(=O)[nH]nc5c4cc3-c3ccccc3)cc2)CCC1` [MK-2206], the “acetylated nuclear HNF4α expression reduced compared with nontreated controls” value is reported as 14%, the “activated AKT(Thr308) expression reduced compared with nontreated controls” value is reported as 80% and the “nuclear HNF4α expression reduced compared with nontreated controls” value is reported as 25%.
